According to patent US11053226B2, “KRAS G12C inhibitors and methods of using the same” (Amgen Inc., priority 2018, dated 2021):
pIC50: −log10 of the molar value. Read-outs that look alike come from different tables or passages of the source.

Tests used:
[1] = test system: Phosphorylation of ERK1/2 in MIA PaCa-2 cells; assay: Phospho-ERK1/2 MSD Assay; format: cell-based; conditions: MiaPaCa-2 cells
[2] = test system: Phosphorylation of ERK1/2 in A549 cells; assay: Phospho-ERK1/2 MSD Assay (A549); format: cell-based
[3] = target: GDP-bound KRAS protein (aa 1-169), containing both G12C and C118A amino acid substitutions (Homo sapiens (Human), UniProt P01116, C118A/G12C); assay: Coupled Nucleotide Exchange Assay; format: biochemical
Description: For compounds in Table 9, the following assay conditions were employed:
Coupled Nucleotide Exchange Assay:
The assay plates were then read on a PerkinElmer EnVision Multilabel Reader, using AlphaScreen® technology, and data were analyzed using a 4-parameter logistic model to calculate IC50 values.

[4] = Homo sapiens, MIA PaCa-2, 4 h, read-out: pERK IC50 (4 h, MiaPaCa-2), 4 h compound treatment
[5] = Homo sapiens, A549, 4 h, read-out: pERK IC50 (4 h, A549), 4 h compound treatment
[6] = read-out: Coupled Exchange IC50 (2 h), 2 h compound pre-incubation
[7] = Homo sapiens, MIA PaCa-2, read-out: pERK IC50 (4 h), 4 h compound treatment
[8] = Homo sapiens, read-out: pERK IC50 (4 h), 4 h compound treatment
[9] = read-out: Coupled Exchange IC50 (5 min), 5 min compound pre-incubation
[10] = read-out: Coupled Exchange IC50 (20 h), 20 h compound pre-incubation

Sequence of GDP-bound KRAS protein (aa 1-169), containing both G12C and C118A amino acid substitutions (P01116 other isoform, or with tags, fused parts or gaps G12C/C118A): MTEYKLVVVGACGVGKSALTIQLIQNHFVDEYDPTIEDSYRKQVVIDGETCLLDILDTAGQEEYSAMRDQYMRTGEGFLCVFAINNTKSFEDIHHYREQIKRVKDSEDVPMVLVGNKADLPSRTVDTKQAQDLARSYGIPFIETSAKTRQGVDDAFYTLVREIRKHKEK

SMILES	pIC50 [1, 4]	pIC50 [2, 5]	pIC50 [3, 6]	pIC50 [1, 7]	pIC50 [2, 8]	pIC50 [3, 9]	pIC50 [3, 10]	pIC50 ([1]; read-out: pERK IC50 (4 h, MiaPaCa-2), 4 h compound treatment)	pIC50 ([2]; read-out: pERK IC50 (4 h, A549), 4 h compound treatment)
C=CC(=O)N1CC(NC(=O)Cn2c(CC3CC3)c(C(=O)N3CCc4c(cccc4OC)C3)c3cc(Cl)cc(C)c32)C1 [Example 1-5, 2-(5-Chloro-2-(cyclopropylmethyl)-3-((5-methoxy-3,4-dihydro-2(1H)-isoquinolinyl)carbonyl)-7-methyl-1H-indol-1-yl)-N-(1-(2-propenoyl)-3-azetidinyl)acetamide]	6.82	< 4.00	7.10						
C=CC(=O)N1CC(NC(=O)Cn2c(C)c(-c3ccccc3N3CCOCC3)c3cc(Cl)ccc32)C1 [Example 49]			6.14	5.33	5.11				
C=CC(=O)N1CC(NC(=O)Cn2c(C3CC3)c(C(=O)N3CCc4c(cccc4OC)C3)c3cc(Br)ccc32)C1 [Example 3-2, 2-(5-Bromo-2-cyclopropyl-3-((5-methoxy-3,4-dihydro-2(1H)-isoquinolinyl)carbonyl)-1H-indol-1-yl)-N-(1-(2-propenoyl)-3-azetidinyl)acetamide]	6.22	4.28	6.85						
C=CC(=O)N1CC(NC(=O)Cn2cc(I)c3cc(Br)ccc32)C1 [Example 85]			5.42	4.85	< 4.00	4.63	6.31		
C=CC(=O)N1CC(NC(=O)Cn2c(C)c(C(=O)N3[C@H](C)Cc4c(OC)cccc4[C@H]3C)c3cc(Br)cc(C)c32)C1 (stereo in doubt) [Example 2-3]	6.17	4.29	6.80						
C=CC(=O)N1CC(NC(=O)Cn2c(C)c(C(=O)N3CCc4ccccc4[C@H]3C)c3cc(Br)cc(C)c32)C1 [Example 2-2-1, 2-(5-Bromo-2,7-dimethyl-3-(((1R)-1-methyl-3,4-dihydro-2(1H)-isoquinolinyl)carbonyl)-1H-indol-1-yl)-N-(1-(2-propenoyl)-3-azetidinyl)acetamide]			6.80					6.25	4.33
C=CC(=O)N1CC(NC(=O)Cn2c(C)c(C(=O)N3CCc4c(cccc4OC)C3)c3cc(C)cc(C)c32)C1 [Example 6]	5.95	< 4.00	6.47						
C=CC(=O)N1CC(N(C)C(=O)Cn2c(C)c(C(=O)N3CCN(c4ccc(C)cn4)CC3)c3cc(Cl)cc(C)c32)C1 [Example 53]	5.30	< 4.00	6.07				6.74		
C=CC(=O)N1CC(NC(=O)Cn2cc(C(=O)N(C)CC(=O)Nc3ccc(Cl)c(C(F)(F)F)c3)c3cc(Br)ccc32)C1 [Example 158]	4.27	< 4.00	6.36				6.80		
C=CC(=O)N1CC(NC(=O)Cn2cc(C(=O)N3CCc4c(cccc4OC)C3)c3cc(Br)ccc32)C1 [Example 76]	4.94	< 4.00	6.19				6.77		
C=CC(=O)N1CC(NC(=O)Cn2cc(I)c3cc([N+](=O)[O-])ccc32)C1 [Example 128]			5.14	4.45	< 4.00	< 3.60	5.93		
